This passage reports EC50 and CC50 results from patent publication US9884818B2, “Sulphamoylpyrrolamide derivatives and the use thereof as medicaments for the treatment of hepatitis B” (Janssen Sciences Ireland UC, priority 2013, dated 2018).

Data set [1] concerns HBV. The data set is described as follows: Anti-HBV activity, HepG2.117 inducibly HBV producing cell line (Tet-off), intracellular HBV DNA by realtime PCR. The settings on record: HepG2.117 cells, 3 days of treatment, intracellular HBV DNA, read-out: HepG2 117 EC50. It counts as cell-based.
The next data set deals with HepG2 cells. Briefly: Cytotoxicity in HepG2 cells, Resazurin viability assay. The settings on record: read-out: HepG2 4 days CC50; HepG2 cells, incubated for 4 days, Resazurin assay.
Data set [2] concerns HBV. Briefly: Anti-HBV activity, HepG2.2.15 stable transfected cell line, HBV DNA from secreted virions by realtime PCR. It counts as cell-based. As to conditions: HepG2.2.15 cells, 6 days of treatment, HBV DNA from secreted virions, read-out: HepG2 2.15 EC50.
Data set [3] in a line: Cytotoxicity in HepG2 cells, Resazurin viability assay. As to conditions: human, HepG2 cells, HepG2 4 days CC50 (μM), incubated for 4 days, Resazurin assay.
Setting [4] is: Hepatitis B virus, HepG2.117, 72 h.
Setting [5] is: Hepatitis B virus, HepG2.2.15, 144 h.

SMILES strings stand for the structures.

In general, EC50 refers to the concentration giving half of the maximal effect. As usually defined, the CC50 is the concentration giving 50% cytotoxicity. As to `Cn1cc(S(=O)(=O)NC2CCCC2(F)F)cc1C(=O)Nc1ccc(F)c(Cl)c1F` (single isomer, unassigned) [Compound 236b, N-(3-Chloro-2,4-difluorophenyl)-4-{[2,2-difluorocyclopentyl]sulfamoyl}-1-methyl-1H-pyrrole-2-carboxamide], the EC50 is 50 nM in the data set on HBV [1] and 60 nM with HBV [2]. Moreover, the CC50 in the data set with HepG2 cells is above 25000 nM.

With `Cn1cc(S(=O)(=O)NC2CCC(F)(F)C2)cc1C(=O)Nc1cc(F)c(F)c(Cl)c1` (single isomer, unassigned) [Compound 166b, N-(3-Chloro-4,5-difluorophenyl)-4-[(3,3-difluorocyclopentyl)sulfamoyl]-1-methyl-1H-pyrrole-2-carboxamide], the EC50 was 170 nM in the data set on HBV [1] and 310 nM with HBV [2]. Further, the CC50 in the data set on HepG2 cells was 21300 nM.

As to `CC(CC(F)(F)F)NS(=O)(=O)c1cc(C(=O)Nc2cc(F)c(F)c(Cl)c2)n(C)c1` (single isomer, unassigned) [Compound 169b, N-(3-Chloro-4,5-difluorophenyl)-1-methyl-4-[(3,3,3-trifluoro-1-methylpropyl)sulfamoyl]-1H-pyrrole-2-carboxamide], the figures for the EC50 in the data set on HBV [1] and in the data set on HBV [2] were 30 nM and 40 nM, respectively. Further, the CC50 in the data set on HepG2 cells was 17100 nM.

As for `Cn1cc(S(=O)(=O)NC2(C(F)(F)F)CCOC2)cc1C(=O)Nc1ccc(F)c(C#N)c1` (single isomer, unassigned) [Compound 228b, N-(3-Cyano-4-fluorophenyl)-1-methyl-4-{[3-(trifluoromethyl)tetrahydrofuran-3-yl]sulfamoyl}-1H-pyrrole-2-carboxamide], the CC50 in the data set with HepG2 cells is above 25000 nM. Further, in the data set on HBV [2], the EC50 was found to be 30 nM.

With `CC(NS(=O)(=O)c1cc(C(=O)Nc2ccc(F)c(C#N)c2)n(C)c1)C(F)F` (single isomer, unassigned) [Compound 200b, N-(3-Cyano-4-fluorophenyl)-4-{[2,2-difluoro-1-methylethyl]sulfamoyl}-1-methyl-1H-pyrrole-2-carboxamide], the EC50 amounted to 100 nM with HBV [1] and 90 nM in the data set with HBV [2]. Further, the CC50 in the data set with HepG2 cells is above 25000 nM.

For the compound `CCC(C)(NS(=O)(=O)c1cc(C(=O)Nc2cc(F)c(F)c(Cl)c2)n(C)c1)C(F)(F)F` (single isomer, unassigned) [Compound 165b, N-(3-chloro-4,5-difluoro-phenyl)-1-methyl-4-[[1-methyl-1-(trifluoro-methyl)propyl]sulfamoyl]pyrrole-2-carboxamide], the results for the EC50 in the data set with HBV [1] and in the data set with HBV [2] were 20 nM and 120 nM, respectively. Further, the CC50 in the data set on HepG2 cells worked out at 4800 nM.

For `Cc1c(S(=O)(=O)NC2(C)COC2)cn(C)c1C(=O)Nc1ccc(F)c(C#N)c1` [Compound 152, N-3-Cyano-4-fluoromethyl-4-[(3-methyloxetan-3-yl)sulfamoyl]-1H-pyrrole-2-carboxamide], the EC50 with HBV [1] (setting [4]) came to 80 nM; in the data set with HBV [2] (setting [5]) it was 240 nM. In data set [3], this compound gave a CC50 at 4 days above 25 µM.

As for `Cn1cc(S(=O)(=O)NC(C)(C)CF)cc1C(=O)Nc1ccc(F)c(Cl)c1F` [Compound 261], the results for the EC50 in the data set on HBV [1] (setting [4]) and in the data set with HBV [2] (setting [5]) were 130 nM and 40 nM, respectively. In data set [3], this compound came in with a CC50 at 4 days above 25 µM.
